Experimental data reported in patent publication US12528761B2, “Thyromimetics” (Autobahn Therapeutics, Inc., priority 2020, dated 2026).

Biological target: T1, recombinant human FAAH (rhFAAH) (Homo sapiens, UniProt O00519)
T1 construct: purchased Cayman Chemical (Ann Arbor, MI, USA)
T1 sequence (O00519 1-579): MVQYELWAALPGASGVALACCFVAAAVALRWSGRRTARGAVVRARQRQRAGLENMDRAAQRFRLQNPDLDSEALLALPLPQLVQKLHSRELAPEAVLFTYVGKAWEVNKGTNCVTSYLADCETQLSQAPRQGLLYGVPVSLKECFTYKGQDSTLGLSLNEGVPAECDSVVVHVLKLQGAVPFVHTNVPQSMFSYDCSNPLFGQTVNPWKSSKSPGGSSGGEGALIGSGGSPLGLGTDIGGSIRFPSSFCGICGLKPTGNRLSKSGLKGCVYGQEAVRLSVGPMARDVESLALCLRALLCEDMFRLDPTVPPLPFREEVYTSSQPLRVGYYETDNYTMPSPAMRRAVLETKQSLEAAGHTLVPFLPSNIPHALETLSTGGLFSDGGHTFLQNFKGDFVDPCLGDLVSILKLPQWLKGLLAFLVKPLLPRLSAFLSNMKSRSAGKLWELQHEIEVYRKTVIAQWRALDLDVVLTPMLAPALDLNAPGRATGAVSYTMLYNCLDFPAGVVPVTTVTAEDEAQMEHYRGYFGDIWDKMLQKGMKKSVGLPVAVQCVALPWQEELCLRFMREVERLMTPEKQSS
Assay: FAAH substrate evaluation (formation of acid metabolite, LC-MS/MS)
Format: biochemical
Design: key: A: ke is equal to or less than 1.0; B: ke is greater than 1.0 and less than or equal to 2.5; C: ke is greater than 2.5; NC: no conversion
Details: 0.5 ng/μL rhFAAH, 1 μM test compound, pH 8.0, room temperature, 0-60 minutes
Description: Purified recombinant human FAAH (rhFAAH) was purchased from Cayman Chemical (Ann Arbor, MI, USA). The total volume for each incubation was 400 μL containing a final 0.5 ng/μL rhFAAH, 1 μM test compound, 1.25% ethanol or 1 μM PF-3845 (FAAH inhibitor), and 0.1% bovine serum albumin in Tris-EDTA buffer at pH 8.0). The positive control was LL-341001. The incubation was conducted at the room temperature. At 0, 5, 15, 30 and 60 minutes, an aliquot of 30 μL reaction mixtures was removed and mixed with 300 μL acetonitrile containing 5 ng/mL terfenadine and 10 ng/mL tolbutamide as internal standards to quench the reaction. The resulting mixture was centrifuged at 4000 rpm, 4° C. for 15 minutes, and 100 μL supernatant was ready for LC-MS/MS analysis to measure the formation of acid metabolite.
Acquity Ultra Performance LC system from Waters was used for sample analysis. The chromatography was performed on a reverse phase Kinetex 2.6 μm C18 column, 2.1×30 mm, 100 Å. The mobile phase A comprised of 0.1% formic acid in water and mobile phase B comprised of 0.1% formic acid in acetonitrile with a 2-min run time at the flow rate of 0.8 mL/min for the acid metabolite from positive control or a 1.5 min run time at the flow rate of 0.9 mL/min for the acid metabolite of test compounds. The mass spectrometer (API-5500 and API Q Trap 4000 Applied Biosystems/MDS SCIEX Instruments, Framingham, MA, USA) was operated under ESI positive or negative ion MRM mode.
The formation of acid metabolite was monitored and quantified using one calibration point of 1 μM. The observed rate constant (ke) for the acid metabolite formation was calculated by plotting the metabolite concentration versus time of incubation with the slope being ke and is shown in Table 4.

| Compound | ke, observed rate constant for the acid metabolite formation |
| --- | --- |
| CNC(=O)CNc1cc(Cl)c(Cc2ccc(O)c(C(C)C)c2F)c(Cl)c1F [Compound 79, 2-((3,5-dichloro-2-fluoro-4-(2-fluoro-4-hydroxy-3-isopropylbenzyl)phenyl)amino)-N-methylacetamide] | A (ke is equal to or less than 1.0) |
| CNC(=O)CSc1cc(C)c(Cc2ccc(O)c(C(C)C)c2)c(Cl)c1F [Compound 218, 2-((3-chloro-2-fluoro-4-(4-hydroxy-3-isopropylbenzyl)-5-methylphenyl)thio)-N-methylacetamide] | B (ke is greater than 1.0 and less than or equal to 2.5) |
| Cc1cc(CSCC(=O)Nc2cccnn2)cc(Cl)c1Cc1ccc(O)c(C(C)C)c1 [Compound 230, 2-((3-chloro-4-(4-hydroxy-3-isopropylbenzyl)-5-methylbenzyl)thio)-N-(pyridazin-3-yl)acetamide] | B (ke is greater than 1.0 and less than or equal to 2.5) |
| CNC(=O)CNc1cc(Cl)c(Cc2ccc(O)c(C(C)C)c2)c(Cl)c1F [Compound 76, 2-((3,5-dichloro-2-fluoro-4-(4-hydroxy-3-isopropylbenzyl)phenyl)amino)-N-methylacetamide] | A (ke is equal to or less than 1.0) |
| CC(C)c1c(O)ccc(Cc2c(Cl)cc(NCC(=O)Nc3ccnnc3)c(F)c2Cl)c1F [Compound 162, 2-((3,5-dichloro-2-fluoro-4-(2-fluoro-4-hydroxy-3-isopropylbenzyl)phenyl)amino)-N-(pyridazin-4-yl)acetamide] | C (ke is greater than 2.5) |
| CNC(=O)/C=C/c1cc(Cl)c(Cc2ccc(O)c(C(C)C)c2F)c(Cl)c1 [Compound 115, (E)-3-(3,5-dichloro-4-(2-fluoro-4-hydroxy-3-isopropylbenzyl)phenyl)-N-methylacrylamide] | NC |
| CNC(=O)CSc1cc(C)c(Cc2ccc(O)c(C(C)C)c2F)c(Cl)c1 [Compound 233, 2-((3-chloro-4-(2-fluoro-4-hydroxy-3-isopropylbenzyl)-5-methylphenyl)thio)-N-methylacetamide] | C (ke is greater than 2.5) |
| Cc1cc(CSCC(=O)NC2CC2)cc(Cl)c1Cc1ccc(O)c(C(C)C)c1 [Compound 229, 2-((3-chloro-4-(4-hydroxy-3-isopropylbenzyl)-5-methylbenzyl)thio)-N-cyclopropylacetamide] | C (ke is greater than 2.5) |
| CC(C)c1cc(Cc2c(Cl)cc(SCC(=O)Nc3cccnn3)cc2Cl)ccc1O [Compound 174, 2-((3,5-dichloro-4-(4-hydroxy-3-isopropylbenzyl)phenyl)thio)-N-(pyridazin-3-yl)acetamide] | C (ke is greater than 2.5) |
| CNC(=O)CSc1cc(C)c(Cc2ccc(O)c(C(C)C)c2)c(Cl)c1 [Compound 242, 2-((3-chloro-4-(4-hydroxy-3-isopropylbenzyl)-5-methylphenyl)thio)-N-methylacetamide] | B (ke is greater than 1.0 and less than or equal to 2.5) |
| CC(C)c1cc(Cc2c(Cl)cc(SCC(N)=O)cc2Cl)ccc1O [Compound 179, 2-((3,5-dichloro-4-(4-hydroxy-3-isopropylbenzyl)phenyl)thio)acetamide] | C (ke is greater than 2.5) |
| CNC(=O)CNc1cc(C)c(Cc2ccc(O)c(C(C)C)c2)c(Cl)c1 [Compound 240, 2-((3-chloro-4-(4-hydroxy-3-isopropylbenzyl)-5-methylphenyl)amino)-N-methylacetamide] | NC |
| CNC(=O)Cc1cc(Cl)c(Cc2ccc(O)c(C(C)C)c2)c(Cl)c1 [Compound 7, 2-(3,5-dichloro-4-(4-hydroxy-3-isopropylbenzyl)phenyl)-N-methylacetamide] | NC |
| CNC(=O)CSc1cc(Cl)c(Cc2ccc(O)c(C(C)C)c2)c(Cl)c1F [Compound 190, 2-((3,5-dichloro-2-fluoro-4-(4-hydroxy-3-isopropylbenzyl)phenyl)thio)-N-methylacetamide] | B (ke is greater than 1.0 and less than or equal to 2.5) |
| CNC(=O)CNc1cc(C)c(Cc2ccc(O)c(C(C)C)c2)c(Cl)c1F [Compound 135, 2-((3-chloro-2-fluoro-4-(4-hydroxy-3-isopropylbenzyl)-5-methylphenyl)amino)-N-methylacetamide] | A (ke is equal to or less than 1.0) |
| CC(C)c1c(O)ccc(Cc2c(Cl)cc(NCC(=O)Nc3ccncc3)c(F)c2Cl)c1F [Compound 161, 2-((3,5-dichloro-2-fluoro-4-(2-fluoro-4-hydroxy-3-isopropylbenzyl)phenyl)amino)-N-(pyridin-4-yl)acetamide] | B (ke is greater than 1.0 and less than or equal to 2.5) |
| CC(C)c1cc(Cc2c(Cl)cc(SCC(=O)Nc3ccncc3)cc2Cl)ccc1O [Compound 172, 2-((3,5-dichloro-4-(4-hydroxy-3-isopropylbenzyl)phenyl)thio)-N-(pyridin-4-yl)acetamide] | C (ke is greater than 2.5) |
| CON(C)C(=O)/C(C)=C/c1cc(Cl)c(Cc2ccc(O)c(C(C)C)c2F)c(Cl)c1 [Compound 122, (E)-3-(3,5-dichloro-4-(2-fluoro-4-hydroxy-3-isopropylbenzyl)phenyl)-N-methoxy-N,2-dimethylacrylamide] | A (ke is equal to or less than 1.0) |
| CNC(=O)CCc1cc(Cl)c(Cc2ccc(O)c(C(C)C)c2F)c(Cl)c1 [Compound 41, 3-(3,5-dichloro-4-(2-fluoro-4-hydroxy-3-isopropylbenzyl)phenyl)-N-methylpropanamide] | A (ke is equal to or less than 1.0) |
| CNC(=O)/C(C)=C/c1cc(C)c(Cc2ccc(O)c(C(C)C)c2F)c(Cl)c1 [Compound 238, (E)-3-(3-chloro-4-(2-fluoro-4-hydroxy-3-isopropylbenzyl)-5-methylphenyl)-N,2-dimethylacrylamide] | B (ke is greater than 1.0 and less than or equal to 2.5) |
| CNC(=O)CCc1cc(Cl)c(Cc2ccc(O)c(C(C)C)c2)c(Cl)c1F [Compound 66, 3-(3,5-dichloro-2-fluoro-4-(4-hydroxy-3-isopropylbenzyl)phenyl)-N-methylpropanamide] | A (ke is equal to or less than 1.0) |
| CNC(=O)CSc1cc(Cl)c(Cc2ccc(O)c(C(C)C)c2)c(Cl)c1 [Compound 195, 2-((3,5-dichloro-4-(4-hydroxy-3-isopropylbenzyl)phenyl)thio)-N-methylacetamide] | B (ke is greater than 1.0 and less than or equal to 2.5) |
| CNC(=O)CSCc1cc(Cl)c(Cc2ccc(O)c(C(C)C)c2)c(C)c1F [Compound 219, 2-((5-chloro-2-fluoro-4-(4-hydroxy-3-isopropylbenzyl)-3-methylbenzyl)thio)-N-methylacetamide] | A (ke is equal to or less than 1.0) |
